Measurements: publication PMC8095115, “Dual regulation of TRPV1 channels by phosphatidylinositol via functionally distinct binding sites” (The Journal of Biological Chemistry, 2021)

What was measured:
TRPV1 [1] = biological target: TRPV1 (Rattus norvegicus, UniProt O35433, D509A); test: excised inside-out patch clamp, Xenopus oocytes; format: cell-based
TRPV1 [2] = biological target: TRPV1 (Rattus norvegicus, UniProt O35433); test: excised inside-out patch clamp, Xenopus oocytes; partial inhibition with PtdIns([…])P2, partial activation without it; format: cell-based; details: read-out: % inhibition at 50 μM
Sequence of TRPV1 (Rattus norvegicus, UniProt O35433) (O35433 whole entry): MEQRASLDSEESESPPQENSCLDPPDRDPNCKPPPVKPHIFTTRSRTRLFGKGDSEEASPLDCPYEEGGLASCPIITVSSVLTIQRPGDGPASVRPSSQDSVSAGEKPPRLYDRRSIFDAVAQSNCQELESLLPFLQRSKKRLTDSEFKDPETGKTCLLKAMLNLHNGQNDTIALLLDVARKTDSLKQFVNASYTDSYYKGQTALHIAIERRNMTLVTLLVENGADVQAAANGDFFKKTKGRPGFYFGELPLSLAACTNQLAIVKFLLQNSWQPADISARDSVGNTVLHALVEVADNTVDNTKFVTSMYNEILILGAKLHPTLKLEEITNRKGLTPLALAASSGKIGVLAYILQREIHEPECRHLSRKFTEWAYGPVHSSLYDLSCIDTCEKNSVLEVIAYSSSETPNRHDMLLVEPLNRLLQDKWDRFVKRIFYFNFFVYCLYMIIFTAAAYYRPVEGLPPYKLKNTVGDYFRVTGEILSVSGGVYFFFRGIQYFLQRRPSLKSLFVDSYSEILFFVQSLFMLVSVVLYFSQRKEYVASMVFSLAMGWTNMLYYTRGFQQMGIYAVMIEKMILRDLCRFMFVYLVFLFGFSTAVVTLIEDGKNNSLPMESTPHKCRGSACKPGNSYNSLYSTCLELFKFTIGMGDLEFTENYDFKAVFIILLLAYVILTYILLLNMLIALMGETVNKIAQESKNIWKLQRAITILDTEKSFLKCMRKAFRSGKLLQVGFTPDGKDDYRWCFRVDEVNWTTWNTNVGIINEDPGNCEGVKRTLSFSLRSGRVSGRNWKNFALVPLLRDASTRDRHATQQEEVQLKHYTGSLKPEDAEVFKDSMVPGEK

Sequence of TRPV1 (Rattus norvegicus, UniProt O35433, D509A) (O35433 whole entry D509A): as the sequence (O35433 whole entry) above, with D509A counted along it

CCCCCCCC(=O)OC[C@H](COP(=O)(O)O[C@@H]1[C@H](O)[C@H](O)[C@@H](O)[C@H](O)[C@H]1O)OC(=O)CCCCCCC [diC8 PtdIns]
excised inside-out patch clamp, Xenopus oocytes (TRPV1 [1]): The D509A mutant on the other hand was clearly inhibited by PtdIns | inhibition at 50 µM (TRPV1 [2]): ~50%
